The text below walks through data of patent US10973803B2, “Sodium salt of N-((1,2,3,5,6,7-hexahydro-s-indacen-4-yl)carbamoyl)-1-isopropyl-1H-pyrazole-3-sulfonamide” (INFLAZOME LIMITED, priority 2018, dated 2021).

Data set [1] in a line: XRPD after storage at elevated temperature and humidity (stability of polymorphic form). It is filed as physicochemical. As to the method:
X-Ray Powder Diffraction (XRPD), Ion Chromatography (IC), Karl Fischer titration (KF), Thermogravimetric Analysis (TGA), Differential Scanning Calorimetry (DSC) and high performance liquid chromatography (HPLC) techniques referred to in the examples were carried out under the following conditions: XRPD diffractograms were collected on a Bruker D8 diffractometer using CuKα radiation (40 kV, 40 mA) and a θ-2θ goniometer fitted with a Ge monochromator. The incident beam passed through a 2.0 mm divergence slit followed by a 0.2 mm antiscatter slit and knife edge. The diffracted beam passed through an 8.0 mm receiving slit with 2.5° Soller slits followed by the Lynxeye Detector. The software used for data collection and analysis was Diffrac Plus XRD Commander and Diffrac Plus EVA respectively. Samples were run under ambient conditions as flat plate specimens using powder as received. The sample was prepared on a polished, zero-background (510) silicon wafer by gently pressing onto the flat surface or packed into a cut cavity.
The XRPD spectra shown in FIG. 1 were obtained directly after preparation of the product, after storage for 1 week and for 5 weeks at 40° C. and 75% relative humidity, and after storage for 1 week and for 5 weeks at 25° C. and 97% relative humidity.
The XRPD spectra shown in FIG. 3 were obtained directly after preparation of the product, after storage for 1 week at 40° C. and 75% relative humidity, and after storage for 1 week at 25° C. and 97% relative humidity.

The nature of data set [2]: stability in aqueous media. It is filed as physicochemical. The note with it: 0.2 mg/ml; for stability in aqueous media (in words): 50° C. and room temperature; for Stability in aqueous media (24 hrs at 50° C.) / Stability in aqueous media (24 hrs at room temperature): sodium salt in water, free acid in 1:1 water and acetonitrile; for Stability in aqueous media (24 hrs at 50° C.): amber vial. As to the method: To measure the stability in aqueous media, the sodium salt was dissolved in water at a concentration of 0.2 mg/ml. Due to the very poor aqueous solubility of the free acid, the free acid was dissolved in a 1:1 mixture of water and acetonitrile at the same concentration of 0.2 mg/ml. Samples were kept at 50° C. in an amber vial and at room temperature in an amber vial as well as a clear vial.

Data set [3] in a line: intrinsic dissolution rate (US Pharmacopoeia, chapter 1087). It is filed as physicochemical. Here is the method: The intrinsic dissolution rate was measured by the procedure set out in the US Pharmacopoeia, chapter 1087.
Data set [4] can be described thus: thermodynamic aqueous solubility measured in water.
A further data set is described as follows: physchem. The note with it: water, thermodynamic from solid.

Where only a bound is given, the exact number is not on record here.

With `CC(C)n1ccc(S(=O)(=O)NC(=O)Nc2c3c(cc4c2CCC4)CCC3)n1.[Na]` [Example 3, N-((1,2,3,5,6,7-hexahydro-s-indacen-4-yl)carbamoyl)-1-isopropyl-1H-pyrazole-3-sulfonamide monosodium anhydrate], the “polymorphic form stability on storage at elevated humidity (XRPD)” value in data set [1] (1 week at 25° C. and 97% relative humidity) is “converts to the monosodium monohydrate (Form 1)”. In data set [1] (1 week at 40° C. and 75% relative humidity), the “polymorphic form stability on storage at elevated temperature (XRPD)” value is on record as “stable at elevated temperature”.

By Aqueous Solubility is commonly meant the dissolved amount per volume that the medium holds. The low end stands for little dissolved substance, the high end for much dissolved substance. In general, solubility refers to the dissolved amount per volume that the medium holds. High values mean a readily soluble substance, low ones a poorly soluble substance. Turning to `CC(C)n1ccc(S(=O)(=O)NC(=O)Nc2c3c(cc4c2CCC4)CCC3)n1` [Comparative Example 1, N-((1,2,3,5,6,7-hexahydro-s-indacen-4-yl)carbamoyl)-1-isopropyl-1H-pyrazole-3-sulfonamide free acid, reference compound], in data set [2], the “stability in aqueous media (in words)” value was “unstable”, the “Stability in aqueous media (24 hrs at 50° C.)” value worked out at 94% degradation and the “Stability in aqueous media (24 hrs at room temperature)” value is reported as 37% degradation. Besides, in data set [3], the “Intrinsic dissolution rate (at pH 2)” value amounted to 4 μg/min · mm^2. Besides, in data set [4] (thermodynamic, in water), the “Aqueous Solubility” value is less than 0.5 mg/mL. Moreover, in data set [4] (water, thermodynamic from solid), the solubility is less than 0.5 mg/mL.

Take `CC(C)n1ccc(S(=O)(=O)NC(=O)Nc2c3c(cc4c2CCC4)CCC3)n1.O.[Na]` [Example 2, N-((1,2,3,5,6,7-hexahydro-s-indacen-4-yl)carbamoyl)-1-isopropyl-1H-pyrazole-3-sulfonamide monosodium monohydrate]: in data set [2], the “stability in aqueous media (in words)” value is reported as “stable in aqueous media”, the “Stability in aqueous media (24 hrs at 50° C.)” value is 2.7% degradation and the “Stability in aqueous media (24 hrs at room temperature)” value is on record as “No significant”. Further, the “Intrinsic dissolution rate (at pH 2)” value in data set [3] was 10 μg/min · mm^2. Moreover, in data set [3] (sodium salt versus free acid), the “intrinsic dissolution rate relative to that of the free acid” value was “at least twice as high”. Moreover, in data set [1] (storage 1 week and 5 weeks at 40° C. and 75% relative humidity, and 1 week and 5 weeks at 25° C. and 97% relative humidity), the “stability with respect to conversion into other polymorphic forms (XRPD)” value is on record as “shows stability with respect to conversion into other polymorphic forms”. This molecule yielded a solubility in “physchem” of 81 mg/mL. In addition, in data set [4] (in water at solubility of 81 mg/ml), the “resulting pH of aqueous solution” value stood at 9.7.
